Measured values: patent US20130096067A1, “DROSOPHILA TUMOR STEM CELL MODEL AND USES THEREOF” (priority 2011, published 2013)
Square brackets hold non-standard residues; d marks the D form. Peptide text beside a SMILES is read from it. Nle = CCCC[C@H](N)C(=O)O

Test system: Raf-1^gof intestinal tumors
Settings: assessed three days later; for Log2 (fold) (luciferase activity, log2 of the fold difference relative to DMSO controls) / Fold (luciferase activity, fold difference relative to DMSO controls): screen of 480 ICCB compounds in vials, compounds fed to flies with one-day old Raf-1^gof tumors, esg-Gal4 luciferase; for Fold (luciferase activity, fold difference relative to DMSO controls) / Fold (luciferase activity relative to DMSO controls): averaged from multiple wells; for Log2 (fold) of luciferase activity relative to DMSO controls / Fold (luciferase activity relative to DMSO controls): ICCB compounds fed in vials to flies with one-day old Raf-1^gof tumors
Note: test concentration or dose not given here.

Compound | Log2 (fold) (luciferase activity, log2 of the fold difference relative to DMSO controls) | Fold (luciferase activity, fold difference relative to DMSO controls) | Log2 (fold) of luciferase activity relative to DMSO controls | Fold (luciferase activity relative to DMSO controls) [fold]
O=c1oc(Cl)c(Cl)c2ccccc12 [3,4-dichloroisocoumarin] | −0.772 | 0.586 | – | –
CC[N+](C)(CC)CCC[n+]1c(-c2ccccc2)c2cc(N)ccc2c2ccc(N)cc21.[I-].[I-] [propidium iodide] | – | – | 0.100 | 1.072
CNc1ccc2oc(C[C@H]3O[C@@]4(CC[C@H]3C)O[C@H]([C@H](C)C(=O)c3ccc[nH]3)[C@H](C)C[C@H]4C)nc2c1C(=O)O [A-23187] | – | – | 0.176 | 1.130
CCCCNc1cc(C(=O)O)cc(S(N)(=O)=O)c1Oc1ccccc1 [bumetanide] | – | – | −0.048 | 0.967
CC(=O)OCOC(c1ccc2ccccc2c1)P(=O)(OCOC(C)=O)OCOC(C)=O (stereo not drawn) [HNMPA-(AM)3] | – | – | −0.049 | 0.966
COc1cc2nc(N3CCN(C(=O)c4ccco4)CC3)nc(N)c2cc1OC [prazocin] | – | – | 0.011 | 1.008
COc1ccc(C[C@H](N)C(=O)N[C@H]2[C@@H](O)[C@H](n3cnc4c(N(C)C)ncnc43)O[C@@H]2CO)cc1 [puromycin] | – | – | 0.281 | 1.215
NC(=Nc1ccccc1)NC(=O)c1nc(Cl)c(N)nc1N | – | – | 0.088 | 1.063
CCCCC/C=C\C[C@@H](/C=C/C=C\C/C=C\CCCC(=O)O)OO [12(S)-HPETE] | −0.571 | 0.673 | – | –
CCCCC[C@H](O)/C=C/[C@@H]1[C@@H](C/C=C\CCCC(=O)O)[C@@H](O)C[C@@H]1O [9a,11b-PROSTAGLANDIN F2] | −0.294 | 0.815 | – | –
CCCCC/C=C\C/C=C\CCCCCCCC(=O)NCCO [ANANDAMIDE (18:2, n-6)] | – | – | −0.101 | 0.932
C=C1[C@@H](C)[C@H]2[C@H](Cc3ccccc3)NC(=O)[C@]23[C@H](OC(C)=O)/C=C/[C@@](C)(O)C(=O)[C@@H](C)C/C=C/[C@H]3[C@@H]1O [cytochalasin D] | −0.276 | 0.826 | – | –
OCCN(CCO)c1nc(N2CCCCC2)c2nc(N(CCO)CCO)nc(N3CCCCC3)c2n1 [dipyridamole] | −0.431 | 0.742 | – | –
O=C1NC(=O)C(c2ccccc2)(c2ccccc2)N1 [PHENYTOIN] | −0.300 | 0.812 | – | –
CC1=C(/C=C/C(C)=C/C=C/C(C)=C/C(=O)O)C(C)(C)CCC1 [RETINOIC ACID, ALL TRANS] | – | – | −0.162 | 0.894
COC(=O)c1c(C)[nH]c(C)c1C(=O)c1ccccc1Cc1ccccc1 [FPL-64176] | – | – | −0.166 | 0.891
CCCCCCCCCCCCCCC[C@@H](O)[C@H](CO)NC(=O)CCCCCCC [C8 DIHYDROCERAMIDE] | −0.423 | 0.746 | – | –
CC/C=C\C/C=C\C/C=C\C/C=C\C/C=C\CCCCCC(=O)O [DOCOSAPENTAENOIC ACID] | – | – | −0.161 | 0.895
Cc1ccc(N(CC2=NCCN2)c2cccc(O)c2)cc1 [PHENTOLAMINE] | −0.321 | 0.800 | – | –
CCCCCCCCCCCCC/C=C/[C@@H](O)[C@H](CO)NC(=O)CCCCCCCCCCCCCCC [C16 CERAMIDE] | −0.496 | 0.709 | – | –
C1CCC(N=C(NC23CC4CC(CC(C4)C2)C3)N2CCOCC2)CC1.Cl [U-37883A] | −0.572 | 0.673 | – | –
CC(C)[C@@H](O)CC[C@@H](C)[C@H]1CC[C@H]2[C@@H]3CC=C4C[C@@H](O)CC[C@]4(C)[C@H]3CC[C@]12C [24(S)-hydroxycholesterol] | −0.244 | 0.844 | – | –
LYSOPHOSPHATIDIC ACID | −0.509 | 0.703 | – | –

Compound | Log2 (fold) (luciferase activity, log2 of the fold difference relative to DMSO controls) | Fold (luciferase activity, fold difference relative to DMSO controls) | Log2 (fold) of luciferase activity relative to DMSO controls | Fold (luciferase activity relative to DMSO controls) [fold]
O=C1Nc2ccccc2/C1=C1/Nc2ccccc2/C1=N\O [Indirubin-3′-monoxime] | – | – | −0.025 | 0.983
Nc1ccc2c3c(cccc13)C(=O)NC2=O | −0.433 | 0.741 | – | –
CCCCC[C@H](O)/C=C/C1=C(CCCCCCC(=O)O)C(=O)CC1 [PROSTAGLANDIN B1] | −0.408 | 0.753 | – | –
CCCCCCCCCCCCC(O)C(=O)O (stereo not drawn) [2-HYDROXYMYRISTIC ACID] | – | – | 0.087 | 1.062
CCCNC(=O)[C@H]1O[C@@H]1C(=O)N[C@H](C(=O)N1CCC[C@H]1C(=O)OC)[C@@H](C)CC [CA-074-Me] | – | – | −0.114 | 0.924
COC1=CC(=O)O[C@@H](/C=C/c2ccccc2)C1 (racemic) [Kavain (+/−)] | −0.357 | 0.781 | – | –
CCCC(=O)Nc1ncnc2c1ncn2[C@@H]1O[C@@H]2COP(=O)(O)O[C@H]2[C@H]1OC(=O)CCC [dibutyrylcyclic AMP] | −0.701 | 0.615 | – | –
CCCCC/C=C\C/C=C\C/C=C\C/C=C\CCCCCC(=O)O [ADRENIC ACID (22:4, n-6)] | −0.364 | 0.777 | – | –
Cc1cccc(Nc2cc(Cl)nc(SCC(=O)O)n2)c1C [WY-14643] | – | – | 0.020 | 1.014
Ro 31-8220 | – | – | 0.158 | 1.116
CCCCCCCCCCC1=C(C)C(=O)C(OC)=C(OC)C1=O [Decylubiquinone] | −0.442 | 0.736 | – | –
O=C(O)CNC(=O)C(CS)Cc1ccccc1 (stereo not drawn) [Thiorphan] | −0.673 | 0.627 | – | –
CN1C(C(=O)Nc2ccccn2)=C(O)c2ccccc2S1(=O)=O [piroxicam] | – | – | 0.147 | 1.107
CCN1C[C@]2(COC)[C@H](O)C[C@H](OC)[C@@]34[C@@H]5C[C@@]6(O)[C@H](OC(=O)c7ccccc7)[C@@H]5[C@@](OC(C)=O)([C@@H]([C@H](OC)[C@H]23)[C@@H]14)[C@@H](O)[C@@H]6OC [ACONITINE] | −0.278 | 0.825 | – | –
CC/C=C\C/C=C\C/C=C\CCCCCCCCCC(=O)O [EICOSATRIENOIC ACID (20:3 n-3)] | – | – | 0.198 | 1.147
COC(=O)C1=C(C)NC(C)=C(C(=O)OC)C1c1ccccc1[N+](=O)[O-] [NIFEDIPINE] | −0.417 | 0.749 | – | –
CCCCCCCCCCCCCCCCOCC(COP(=O)([O-])OCC[N+](C)(C)C)OC (stereo not drawn) [1-HEXADECYL-2-METHYLGLYCERO-3 PC] | – | – | 0.060 | 1.042
CC[C@@H]1/C=C(\C)C[C@H](C)C[C@H](OC)[C@H]2O[C@@](O)(C(=O)C(=O)N3CCCC[C@H]3C(=O)O[C@H](/C(C)=C/[C@@H]3CC[C@@H](O)[C@H](OC)C3)[C@H](C)[C@@H](O)CC1=O)[C@H](C)C[C@@H]2OC [ascomycin (FK-520)] | – | – | −0.035 | 0.976
C[C@H](CCC(=O)O)C[C@H](C)C[C@H](C)C(=O)/C=C(\O)[C@H](C)C[C@H](C)C/C=C/[C@@H](C)[C@@H](O)[C@@H](C)[C@@H](O)C[C@@H]1CC[C@@](C)([C@H]2CC[C@@](C)([C@@H](C)O)O2)O1 [ionomycin] | −0.591 | 0.664 | – | –
Cc1ccc(NC(=O)c2cccc(N(C)C)c2)cc1NC(=O)c1ccc(O)cc1 [ZM336372] | −0.338 | 0.791 | – | –
C/C(O)=C(\C#N)C(=O)Nc1cc(Br)ccc1Br [LFM-A13] | −0.417 | 0.749 | – | –
CCCC[C@@H](C=O)NC(=O)[C@H](CC(C)C)NC(=O)[C@H](CC(C)C)NC(C)=O [Ac-Leu-Leu-Nle-CHO] (Ac-Leu-Leu-[Nle]-aldehyde) | −0.431 | 0.742 | – | –
